Results taken from patent US8119633B2, “Substituted sulfonamide compounds” (Gruenenthal GmbH, priority 2007, dated 2012).
Where two headings read alike, the source gives them in different places.

Experiments:
[1] = target: T1, human μ-opiate receptor (Homo sapiens, UniProt P35372); assay: Affinity for the human μ-opiate receptor ([3H]-naloxone displacement, SPA); settings: test substance 1 μmol/l, inhibition of specific [3H]-naloxone binding, CHO-K1 receptor membrane preparation; for inhibition at 1 µM: read-out: μ-Opioid receptor [1 μM] % inhibition
T1 construct: purchased PerkinElmer Life Sciences, Zaventem, Belgium RB-HOM; host or cells: CHO-K1 cells (membrane preparation)
T1 sequence (P35372 whole entry): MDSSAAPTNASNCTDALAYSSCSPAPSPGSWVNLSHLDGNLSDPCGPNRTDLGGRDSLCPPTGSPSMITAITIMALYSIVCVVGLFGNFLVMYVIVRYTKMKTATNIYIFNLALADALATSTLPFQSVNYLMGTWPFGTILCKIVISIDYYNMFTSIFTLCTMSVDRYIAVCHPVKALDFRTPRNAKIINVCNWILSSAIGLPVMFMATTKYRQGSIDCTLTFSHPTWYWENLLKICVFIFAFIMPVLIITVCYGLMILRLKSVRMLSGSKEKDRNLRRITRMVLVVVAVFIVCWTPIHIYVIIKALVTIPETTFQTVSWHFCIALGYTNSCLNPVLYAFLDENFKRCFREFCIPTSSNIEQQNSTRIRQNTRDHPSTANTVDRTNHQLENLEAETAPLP
Method: Studies of the Effectiveness of the Compounds According to the Invention Method for determining the affinity for the human μ-opiate receptor
The receptor affinity for the human μ-opiate receptor is determined in a homogeneous batch on microtitre plates. To this end, serial dilutions of the substances to be tested are incubated for 90 minutes at room temperature with a receptor membrane preparation (15-40 μg of protein/250 μl of incubation batch) of CHO-K1 cells, which express the human μ-opiate receptor (RB-HOM receptor membrane preparation from PerkinElmer Life Sciences, Zaventem, Belgium), in the presence of 1 nmol/l of the radioactive ligand [^3H]-naloxone (NET719, PerkinElmer Life Sciences, Zaventem, Belgium) and 1 mg of WGA-SPA beads (wheatgerm agglutinin SPA beads from Amersham/Pharmacia, Freiburg, Germany) in a total volume of 250 μl. The incubation buffer used is 50 mmol/l of Tris-HCl supplemented with 0.06 wt. % bovine serum albumin. In order to determine non-specific binding, 100 μmol/l of naloxone is additionally added. When the ninety-minute incubation time has ended, the microtitre plates are centrifuged off for 20 minutes at 1000 g and the radioactivity is measured in a β-counter (Microbeta-Trilux, PerkinElmer Wallac, Freiburg, Germany). The percentage displacement of the radioactive ligand from its binding to the human μ-opiate receptor at a concentration of the test substances of 1 μmol/l is determined and stated as the percentage inhibition of specific binding. On the basis of the percentage displacement by different concentrations of the test substances, IC50 inhibitory concentrations, which effect 50% displacement of the radioactive ligand, are calculated. Ki values for the test substances are obtained by conversion by means of the Cheng-Prusoff equation.

[2] = target: T2, human bradykinin receptor 1 (B1R) (Homo sapiens, UniProt P46663); assay: Functional study on the bradykinin receptor 1 (B1R), human: FLIPR Ca2+ influx assay; format: cell-based
T2 construct: expressed in transfected cells; host or cells: CHO K1 cells
T2 sequence (P46663 1-353): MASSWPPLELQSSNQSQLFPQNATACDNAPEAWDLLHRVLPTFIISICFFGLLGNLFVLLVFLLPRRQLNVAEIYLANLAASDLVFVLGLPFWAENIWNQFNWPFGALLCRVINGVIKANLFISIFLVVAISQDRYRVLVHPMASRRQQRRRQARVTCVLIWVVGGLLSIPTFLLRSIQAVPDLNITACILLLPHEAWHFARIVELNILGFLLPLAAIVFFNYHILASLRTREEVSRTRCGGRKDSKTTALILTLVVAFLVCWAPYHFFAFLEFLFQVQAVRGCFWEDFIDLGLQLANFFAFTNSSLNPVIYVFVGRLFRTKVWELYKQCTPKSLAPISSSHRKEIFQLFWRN
In short: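 CHO K1 cells stably expressing human B1R were loaded with Fluo-4, and Ca2+ fluorescence was read on FLIPR (ex 488/em 540 nm). Compound was added first (10 μM for % activation against Lys-Des-Arg9-bradykinin ≥0.5 nM). After 10-20 min, Lys-Des-Arg9-bradykinin was added at EC80 for % inhibition; IC50 came from concentration series, n=2-3, N≥2.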

[3] = target: T3, bradykinin receptor 1 (B1R) of the rat (Rattus norvegicus, UniProt P97583); assay: Functional study on the bradykinin receptor 1 (B1R), rat: FLIPR Ca2+ influx assay; format: cell-based
T3 construct: expressed in transfected cells; host or cells: CHO K1 cells
T3 sequence (P97583 1-337): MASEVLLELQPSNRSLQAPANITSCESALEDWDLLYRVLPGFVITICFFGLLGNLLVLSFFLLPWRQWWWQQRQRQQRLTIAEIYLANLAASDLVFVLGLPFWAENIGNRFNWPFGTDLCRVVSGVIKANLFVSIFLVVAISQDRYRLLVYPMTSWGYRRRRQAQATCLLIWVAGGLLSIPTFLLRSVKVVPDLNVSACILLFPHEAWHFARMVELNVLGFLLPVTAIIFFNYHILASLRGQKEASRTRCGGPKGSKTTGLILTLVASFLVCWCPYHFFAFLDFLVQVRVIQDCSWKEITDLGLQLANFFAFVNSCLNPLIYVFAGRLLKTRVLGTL
In short: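 CHO K1 cells stably expressing rat B1R, Fluo-4-loaded, read on FLIPR (ex 488/em 540 nm, peak fluorescence). Test substances added first (agonism vs 10 μM Des-Arg9-bradykinin), then after 10-20 min Des-Arg9-bradykinin at EC80; % inhibition and IC50 from concentration series, n=2-3, N≥2.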

[4] = test substance 10 μM, CHO K1 cells transfected with human B1R, Lys-Des-Arg9-bradykinin at EC80, Ca2+ influx (Fluo-4, FLIPR)
[5] = test substance 10 μM, CHO K1 cells transfected with rat B1R, Des-Arg9-bradykinin at EC80, Ca2+ influx (Fluo-4, FLIPR)
[6] = test substance 10 μM, CHO K1 cells transfected with human B1R, Lys-Des-Arg9-bradykinin at EC80, Ca2+ influx (Fluo-4, FLIPR), read-out: B1R antagonism, human [10 μM] % inhibition
[7] = test substance 10 μM, CHO K1 cells transfected with rat B1R, Des-Arg9-bradykinin at EC80, Ca2+ influx (Fluo-4, FLIPR), read-out: B1R antagonism, rat [10 μM] % inhibition

| Compound | inhibition at 10 µM [2, 6] [%] | inhibition at 10 µM [3, 7] [%] | other results |
| --- | --- | --- | --- |
| 1-(4-(1-(4-methylpiperazin-1-yl)-3-phenylpropyl)piperidin-1-yl)-2-(1-(3-(trifluoromethyl)phenylsulfonyl)piperidin-2-yl)ethanone [Example 112] | – | – | μ-Opioid receptor [1 μM] % inhibition [1]: 28%; B1R antagonism, human [10 μM] % inhibition [2, 4]: 90%; B1R antagonism, rat [10 μM] % inhibition [3, 5]: 61% |
| 3-(1-(4-chloro-2,5-dimethylphenylsulfonyl)piperidin-2-yl)-1-(4-((4-methyl-piperazin-1-yl)(phenyl)methyl)piperidin-1-yl)propan-1-one [Example 122] | – | – | μ-Opioid receptor [1 μM] % inhibition [1]: 47%; B1R antagonism, human [10 μM] % inhibition [2, 4]: 98%; B1R antagonism, rat [10 μM] % inhibition [3, 5]: 40% |
| 4-(Dimethylaminophenylmethyl)piperidin-1-carboxylic acid {3-[(4-methoxy-2,3,6-trimethylbenzenesulfonyl)methylamino]propyl}amide [Example 4] | – | – | μ-Opioid receptor [1 μM] % inhibition [1]: 100%; B1R antagonism, human [10 μM] % inhibition [2, 4]: 54.8%; B1R antagonism, rat [10 μM] % inhibition [3, 5]: 95% |
| COc1cc(C)c(S(=O)(=O)N(C)CCCNC(=O)NC2CCC(C(c3ccccc3)N(C)C)CC2)c(C)c1C (centres unmarked) [Example 1, N—(3-{3-[4-(Dimethylaminophenylmethyl)cyclohexyl]ureido}propyl)-4-methoxy-2,3,6,N-tetramethylbenzenesulfonamide] | 71.5 | 56 | inhibition at 1 µM [1]: 94% |
| COc1cc(C)c(S(=O)(=O)N(C)CCCNC(=O)NCC2CCC(C(c3ccccc3)N(C)C)CC2)c(C)c1C (centres unmarked) [Example 2] | – | – | μ-Opioid receptor [1 μM] % inhibition [1]: 97%; B1R antagonism, human [10 μM] % inhibition [2, 4]: 55.6%; B1R antagonism, rat [10 μM] % inhibition [3, 5]: 43% |
| COc1cc(C)c(S(=O)(=O)N(C)CCCNC(=O)NC2CCC(C(c3ccccc3)N3CCCC3)CC2)c(C)c1C (centres unmarked) [Example 3, 4-Methoxy-2,3,6,N-tetramethyl-N—(3-{3-[4-(phenylpyrrolidin-1-ylmethyl) -cyclohexyl]-ureido}propyl)benzenesulfonamide] | 80.8 | 58 | inhibition at 1 µM [1]: 71% |
| CN(C)C(c1ccc(Cl)cc1)C1CCC(CCNC(=O)c2ccccc2N(C)S(=O)(=O)c2ccc(Cl)c(Cl)c2)CC1 (centres unmarked) [Example 43, N-(2-{4-[(4-chloro-phenyl)-dimethylamino-methyl]-cyclohexyl}-ethyl)-2-[(3,4-dichloro-benzenesulfonyl)-methyl-amino]-benzamide] | 28.9 | 11 | – |
| CN(C)C(c1cccc(F)c1)C1CCC(CCNC(=O)c2ccccc2N(C)S(=O)(=O)c2ccc(Cl)c(Cl)c2)CC1 (centres unmarked) [Example 44, 2-[(3,4-dichloro-benzenesulfonyl)-methyl-amino]-N-(2-{4-[dimethylamino-(3-fluoro-phenyl)-methyl]-cyclohexyl}-ethyl)-benzamide] | 46.5 | 18 | – |
| CN(C)C(c1ccc(F)cc1)C1CCC(CCNC(=O)c2ccccc2N(C)S(=O)(=O)c2ccc(Cl)c(Cl)c2)CC1 (centres unmarked) [Example 45, 2-[(3,4-dichloro-benzenesulfonyl)-methyl-amino]-N-(2-{4-[dimethylamino-(4-fluoro-phenyl)-methyl]-cyclohexyl}-ethyl)-benzamide] | 75.7 | 26 | – |
| O=C1NCCN(S(=O)(=O)c2ccc(Cl)cc2Cl)C1CC(=O)N1CCC(C(c2ccccc2)N2CCOCC2)CC1 (centres unmarked) [Example 62, 4-(2,4-dichloro-benzenesulfonyl)-3-{2-[4-(morpholin-4-yl-phenyl-methyl)piperidin-1-yl]-2-oxo-ethyl}-piperazin-2-one] | – | 27 | inhibition at 1 µM [1]: 4% |
| CN(C)C(c1ccccc1)C1CCC(NC(=O)C2Cc3ccccc3N2S(=O)(=O)c2ccc(Cl)c(Cl)c2)CC1 (centres unmarked) [Example 91, 1-(3,4-dichlorophenylsulfonyl)-N-(4-((dimethylamino)(phenyl)methyl)cyclohexyl)indoline-2-carboxamide] | – | – | inhibition at 10 µM ([2]; CHO-K1, read-out: B1R antagonism, human [10 μM] % inhibition): 17.8%; inhibition at 10 µM ([3]; CHO-K1, read-out: B1R antagonism, rat [10 μM] % inhibition): 8% |
| CN(C)C(c1cccc(F)c1)C1CCC(NC(=O)C2Cc3ccccc3N2S(=O)(=O)c2ccc(Cl)c(Cl)c2)CC1 (centres unmarked) [Example 92, 1-(3,4-dichlorophenylsulfonyl)-N-(4-((dimethylamino)(3-fluorophenyl)methyl)cyclohexyl)indoline-2-carboxamide] | 26 | -13 | – |
| CN(C)C(CCc1ccccc1)C1CCC(NC(=O)C2Cc3ccccc3N2S(=O)(=O)c2ccc(Cl)c(Cl)c2)CC1 (centres unmarked) [Example 93, 1-(3,4-dichlorophenylsulfonyl)-N-(4-(1-(dimethylamino)-3-phenylpropyl)cyclohexyl)indoline-2-carboxamide] | 15.5 | -24 | – |
| CN(C)C(c1ccccc1)C1CCC(CNC(=O)C2Cc3ccccc3N2S(=O)(=O)c2ccc(Cl)c(Cl)c2)CC1 (centres unmarked) [Example 95, 1-(3,4-dichlorophenylsulfonyl)-N-((4-((dimethylamino)(phenyl)methyl)cyclohexyl)methyl)indoline-2-carboxamide] | 18.6 | -15 | – |
| CN(C)C(CCc1ccccc1)C1CCC(CCNC(=O)C2Cc3ccccc3N2S(=O)(=O)c2ccc(Cl)c(Cl)c2)CC1 (centres unmarked) [Example 97, 1-(3,4-dichlorophenylsulfonyl)-N-(2-(4-(1-(dimethylamino)-3-phenylpropyl)cyclohexyl)ethyl)indoline-2-carboxamide] | 16 | 11 | – |
| CN(C)C(c1ccccc1)C1CCC(CCNC(=O)Cc2ccccc2N(C)S(=O)(=O)c2ccc(Cl)c(Cl)c2)CC1 (centres unmarked) [Example 98, 2-(2-(3,4-dichloro-N-methylphenylsulfonamido)phenyl)-N-(2-(4-((dimethylamino)(phenyl)methyl)cyclohexyl)ethyl)acetamide] | 66.8 | -8 | – |
| CN(C)C(CCc1ccccc1)C1CCC(CCNC(=O)Cc2ccccc2N(C)S(=O)(=O)c2ccc(Cl)c(Cl)c2)CC1 (centres unmarked) [Example 99, 2-(2-(3,4-dichloro-N-methylphenylsulfonamido)phenyl)-N-(2-(4-(1-(dimethylamino)-3-phenylpropyl)cyclohexyl)ethyl)acetamide] | 83.3 | -7 | – |
| N-(3-(4-((4-fluorophenyl)(4-methylpiperazin-1-yl)methyl)piperidin-1-yl)-3-oxo-1-phenylpropyl)naphthalene-2-sulfonamide [Example 117] | – | – | μ-Opioid receptor [1 μM] % inhibition [1]: 47% |
